Test results reported in patent US20100240029A1, “Cholesterol-Regulating Complex of SIRT1 and LXR and Methods of Use” (Massachusetts Institute of Technology, priority 2006, published 2010).
Where two headings read alike, the source gives them in different places. Peptide text beside a SMILES is read from it. * marks the point of attachment. Cbz = O=C(OCc1ccccc1)*

Tests used:
[1] = tested on: mouse ABCA1 promoter (LXRE); experiment: mouse ABCA1 promoter driven luciferase reporter assay in HEK293T cells; format: cell-based; details: for basal activity of control reporter missing the LXRE / induction of luciferase reporter driven by wildtype ABCA1 promoter: 6 h; for basal activity of control reporter missing the LXRE: 10 mM nicotinamide or 25 μM MG132; for induction of luciferase reporter driven by wildtype ABCA1 promoter: with 10 μM 22(R)—HC and 1 μM 9-cisRA, 10 mM nicotinamide, 25 μM MG132 or both; for inhibition of 22(R)—HC+9-cisRA-induced luciferase expression, wildtype ABCA1 promoter: 10 mM nicotinamide or 1 μM TSA
Experimental: The luciferase reporter plasmid pGL3-ABCA1 was created by inserting the −847 to +244 of mouse ABCA1 promoter region into KpnI-XhoI sites of pGL3 vector (Promega, Madison, Wi). pGL3-ABCA1-LXRE, the LXRE mutant version of pGL3-ABCA1, was created by deleting the LXRE from wildtype promoter of mouse ABCA1.
For the luciferase assay, MEFIs or HEK293T cells plated in 24-well plates were transfected with 100 ng of pGL3-ABCA1 or pGL3-ABCA1-LXRE, and 10 ng of pRL-TK (Renilla luciferase; Promega). The cells transfected with wildtype (WT) or LXRE mutant (−LXRE) mouse ABCA1 promoter driven luciferase reporter vectors were treated with 1 μM Trichostatin A (TSA), an inhibitor of class I and II deacetylases, or 10 mM nicotinamide (Nico), or both 10 mM nicotinamide+1 μM TSA. Cells transfected with the LXRE mutant vector were incubated in DMEM with 10% FBS in the absence (solid bars) or presence (open bars) of 10 μM 22(R)—HC and 1 μM 9-cisRA (FIG. 2b). Luciferase activity was then measured by using the Dual-Luciferase Reporter Assay System (Promega) 6 or 24 h later. The final GL (firefly luciferase) activity was normalized with co-expressed RL (Renilla luciferase) activity. The experiments were performed in duplicate and were repeated 3 times.
HEK293T cells transfected with wildtype (WT; FIG. 4g, left panel) or LXRE mutant (−LXRE; FIG. 4g, right panel) mouse ABCA1 promoter driven luciferase reporter vectors were treated with either 10 mM nicotinamide (Nico), 25 μM MG132, or both 10 mM nicotinamide+25 μM MG132, in the absence (solid bars) or presence (open bars) of 10 μM 22(R)—HC and 1 μM 9-cisRA for 6 h. Luciferase activities were measured and normalized as in Example 5.

HA-LXRβ = HA-LXRβ protein level in HEK293T cells by western blotting; format: cell-based, mouse; details: 6 h; for levels of HA-LXRβ protein: 1 μM TSA, 10 mM nicotinamide or 25 μM MG132
Experimental: HEK293T cells expressing HA-LXRβ driven by an exogenous CMV promoter were transfected either with pSuper vector, or with a pSuper-SIRT1 RNAi construct. Cells were harvested 3 days after transfection and the levels of HA-LXRβ and SIRT1 were analyzed by western blotting using antibodies to HA and SIRT1. […] Since there was no detectable reduction of LXR mRNA in SIRT1−/− mice (FIG. 3a), SIRT1 regulates LXR protein levels post-transcriptionally.
HEK293T cells expressing HA-LXRβ were treated with either control medium (FIG. 3c, lane 1), or medium with 1 μM TSA (lane 2), 10 mM nicotinamide (lane 3), 25 μM MG132 (carbobenzyloxy-Leu-Leu-Leu-al, a proteasome inhibitor) (lane 4), or 10 mM nicotinamide plus 25 μM MG132 (lane 5) for 6 h. Cells were then harvested and the levels of HA-LXRβ and SIRT1 were analyzed by western blotting using antibodies to HA (upper images) and SIRT1 (middle images). […] Since there was no detectable reduction of LXR's mRNA in SIRT1−/− mice (see Example 9, FIG. 3a), SIRT1 regulates LXR protein levels post-transcriptionally. It is believed that inhibition of SIRT1 activity by nicotinamide increases the protein levels of LXR by interfering with proteasome-mediated LXR degradation.
The basis for the finding that LXR activity is inversely correlated with protein levels was next examined. Since acetylation of lysine residues can block ubiquitination and SIRT1 is a deacetylase, loss of SIRT1 activity might stabilize LXR proteins by increasing the steady state level of LXR acetylation, thus inhibiting the ubiquitin/proteasome degradation pathway.

[2] = through induction of SREBP-1c; cited from earlier work
LXR targets = experiment: LXR target mRNAs in livers of mice fed T0901317 (real-time PCR); format: in vivo, mouse; details: 10 mg/kg oral gavage, 8 days
From the text: Total RNA was isolated from mouse livers, testes, thioglycolate-stimulated peritoneal macrophages, and ovaries by a Qiagen RNeasy mini-kit (Qiagen Inc., Calencia, Ca.). For real-time PCR analysis, cDNA was synthesized by SuperScript III reverse transcriptase (Invitrogen, Carlsbad, Calif.) with random primers. The resulting cDNA was then subjected to PCR analysis with gene-specific primers in the presence of Cybergreen (Qiagen Inc., Calencia, Ca.). Relative abundance of mRNA was obtained by normalization to cyclophilin levels. […] The mRNA levels of ABCA1 were quantified by phosphoimager and normalized against the corresponding actin levels.
To gain further insight into the effect of SIRT1 on LXR function in vivo, wildtype and SIRT1^−/− animals were analyzed for their response to 8-day oral administration of the LXR agonist T0901317 (N-(2,2,2-trifluoro-ethyl)-N-[4-(2,2,2-trifluoro-1-hydroxy-1-trifluoromethyl-ethyl)-phenyl]-benzenesulfonamide)^53.
2-6 month old SIRT1−/− and control males were fed with T0901317 (10 mg/kg) by oral gavage, plasma were collected before and after feeding for plasma lipid analyses. […] Total RNA from liver of wildtype animals without (black filled bar) or fed with 10 mg/kg T0901317 (black striped bar) and SIRT1^−/− mice without (open bar) or with T0901317 (gray striped bar) were analyzed by real-time PCR. […]

[3] = plasma and liver lipids of mice after 8-day oral T0901317; format: in vivo, mouse
Experimental: To determine the total cholesterol levels in mouse tissues, SIRT1^−/− mice and control littermates were fasted for four hours from the beginning of the daylight cycle before sacrificing. Tissues were then harvested and weighted. Total cholesterol from liver and testis were extracted and measured by GC as described previously^70, 71. Total lipids including triglycerides were also dissolved into a solution containing 60% butanol, 13% methanol, and 27% Triton X-100, and measured with the enzymatic, colorimetric assay kits from Wako.
2-6 month old SIRT1−/− and control males were fed with T0901317 (10 mg/kg) by oral gavage, plasma were collected before and after feeding for plasma lipid analyses. Tissues were collected after feeding for further analyses. Total RNA from liver of wildtype animals without (black filled bar) or fed with 10 mg/kg T0901317 (black striped bar) and SIRT1^−/− mice without (open bar) or with T0901317 (gray striped bar) were analyzed by real-time PCR. […] However, the induction of these targets in SIRT1^−/− mice was blunted. Total protein lysates were obtained from livers of indicated mice and analyzed for the levels of ABCA1 protein by immunoblotting (FIG. 3c). (As previously observed, ABCA1 proteins comprise multiple bands by western blotting^78.)
Plasma results in FIG. 3, panels d, e, and f represent the same mice before and after 8-days administration of T0901317. […]

THP-1 cells = experiment: apoAI-mediated [3H]cholesterol efflux from THP-1 cells; format: cell-based, human; details: THP-1, 10 mM nicotinamide for 48 h, efflux to 15 μg/ml apoAI for 24 h
Experimental: For the human monocytic cell line THP-1 cells, cells were treated with 10 mM nicotinamide in RPMI1640/10% FBS for 48 h, then cholesterol loaded with 50 μg/ml of LDL and 1 μCi/ml of [^3H]cholesterol in RPMI1640/1% FBS/0.2% BSA medium for 24 h. Cells were washed with PBS and incubated in RPMI 1640/0.2% BSA with or without 15 μg/ml apoAI for 24 h. The medium and cells were then separated, and cells were lysed with 0.2N NaOH. The radioactivity recovered in the medium and cell lysates were measured and the apoAI-mediated cholesterol efflux was calculated as described above.

[4] = tested on: T1, NH2-terminal HA-tagged mouse LXRβ
T1 sequence: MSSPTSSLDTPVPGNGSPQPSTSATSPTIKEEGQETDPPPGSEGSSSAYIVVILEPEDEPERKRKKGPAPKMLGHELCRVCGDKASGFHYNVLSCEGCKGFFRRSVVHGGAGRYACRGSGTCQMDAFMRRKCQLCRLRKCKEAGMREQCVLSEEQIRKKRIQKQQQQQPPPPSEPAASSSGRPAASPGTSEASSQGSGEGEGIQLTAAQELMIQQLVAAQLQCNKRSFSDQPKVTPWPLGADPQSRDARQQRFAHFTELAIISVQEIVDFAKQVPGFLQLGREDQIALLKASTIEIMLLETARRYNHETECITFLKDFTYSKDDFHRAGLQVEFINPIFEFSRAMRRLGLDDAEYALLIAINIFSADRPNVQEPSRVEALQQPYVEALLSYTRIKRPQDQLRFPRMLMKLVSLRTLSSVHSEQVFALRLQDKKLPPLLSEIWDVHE

[5] = target: T2, NH2-terminal HA-tagged mouse LXRβ
T2 chain: T1 sequence

Molecule: CC(C)C[C@@H](C=O)NC(=O)[C@H](CC(C)C)NC(=O)[C@H](CC(C)C)NC(=O)OCc1ccccc1 [MG132, carbobenzyloxy-Leu-Leu-Leu-al] (Cbz-Leu-Leu-Leu-aldehyde)
- basal activity of control reporter missing the LXRE [1]: not altered
- induction of luciferase reporter driven by wildtype ABCA1 promoter [1]: inhibited the reporter to the same extent as nicotinamide
- levels of HA-LXRβ protein (HA-LXRβ): increase the steady state levels of LXR
- levels of HA-LXRβ protein when SIRT1 is inhibited by nicotinamide (HA-LXRβ; 25 μM MG132 plus 10 mM nicotinamide (lane 4 vs. lane 5)): not when SIRT1 is inhibited by nicotinamide

Molecule: O=S(=O)(c1ccccc1)N(CC(F)(F)F)c1ccc(C(O)(C(F)(F)F)C(F)(F)F)cc1 [T0901317, N-(2,2,2-trifluoro-ethyl)-N-[4-(2,2,2-trifluoro-1-hydroxy-1-trifluoromethyl-ethyl)-phenyl]-benzenesulfonamide]
- plasma and hepatic triglycerides [2]: elevation of plasma and hepatic triglycerides
- induction of LXR targets SREBP-1c, LPL and ABCA1 in liver (LXR targets; SIRT1−/− mice): blunted
- expression of LXR targets SREBP-1c, LPL and ABCA1 at the RNA level in liver (LXR targets; wildtype mice): significantly induced
- induction of plasma and hepatic triglyceride accumulation ([3]; SIRT1−/− vs wildtype mice, 10 mg/kg oral, 8 days): reduced response
- plasma cholesterol levels after feeding ([3]; SIRT1−/− vs wildtype treated mice, especially HDL size particles): Lower plasma cholesterol levels

Molecule: NC(=O)c1cccnc1 [nicotinamide]
- suppression of apoAI-mediated [3H]cholesterol efflux (THP-1 cells): roughly three-fold
- inhibition of 22(R)—HC+9-cisRA-induced luciferase expression, wildtype ABCA1 promoter [1]: 50%
- basal activity of control reporter missing the LXRE [1]: not altered
- induction of luciferase reporter driven by wildtype ABCA1 promoter [1]: blunted the induction
- levels of HA-LXRβ protein (HA-LXRβ): elevated levels

Molecule: CC(/C=C/C(=O)NO)=C\[C@@H](C)C(=O)c1ccc(N(C)C)cc1 [TSA, Trichostatin A]
- inhibition of 22(R)—HC+9-cisRA-induced luciferase expression, wildtype ABCA1 promoter [1]: not inhibited

Molecule: human SIRT1 H355Y, inactive deacetylase mutant
- amount of ubiquitin-conjugated LXR (anti-HA immunoprecipitation, western blot with anti-ubiquitin) [4]: but not the inactive mutant hSIRT1HY increased the amount of ubiquitin-conjugated LXR in transfected HEK293T cells

B1: human SIRT1 protein (protein)
chain: MADEAALALQPGGSPSAAGADREAASSPAGEPLRKRPRRDGPGLERSPGEPGGAAPEREVPAAARGCPGAAAAALWREAEAEAAAAGGEQEAQATAAAGEGDNGPGLQGPSREPPLADNLYDEDDDDEGEEEEEAAAAAIGYRDNLLFGDEIITNGFHSCESDEEDRASHASSSDWTPRPRIGPYTFVQQHLMIGTDPRTILKDLLPETIPPPELDDMTLWQIVINILSEPPKRKKRKDINTIEDAVKLLQECKKIIVLTGAGVSVSCGIPDFRSRDGIYARLAVDFPDLPDPQAMFDIEYFRKDPRPFFKFAKEIYPGQFQPSLCHKFIALSDKEGKLLRNYTQNIDTLEQVAGIQRIIQCHGSFATASCLICKYKVDCEAVRGDIFNQVVPRCPRCPADEPLAIMKPEIVFFGENLPEQFHRAMKYDKDEVDLLIVIGSSLKVRPVALIPSSIPHEVPQILINREPLPHLHFDVELLGDCDVIINELCHRLGGEYAKLCCNPVKLSEITEKPPRTQKELAYLSELPPTPLHVSEDSSSPERTSPPDSSVIVTLLDQAAKSNDDLDVSESKGCMEEKPQEVQTSRNVESIAEQMENPDLKNVGSSTGEKNERTSVAGTVRKCWPNRVAKEQISRRLDGNQYLFLPPNRYIFHGAEVYSDSEDDVLSSSSCGSNSDSGTCQSPSLEEPMEDESEIEEFYNGLEDEPDVPERAGGAGFGTDGDDQEAINEAISVKQEVTDMNYPSNKS
- amount of ubiquitin-conjugated LXR (anti-HA immunoprecipitation, western blot with anti-ubiquitin) [5]: expression of an active SIRT1 transgene (hSIRT1) but not the inactive mutant hSIRT1HY increased the amount of ubiquitin-conjugated LXR in transfected HEK293T cells
